Legend:
Type in all cases: in vivo
common ragweed [1] = assay: Test Example 3: herbicidal effects in soil treatment; conditions: dose 3.2 g/a
In short: (§1)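 Seeds were sown in sterilized diluvial soil and covered with about 1.5 cm of soil. Compounds, formulated as emulsifiable concentrates and diluted with water, were sprayed evenly over the soil surface at set doses in g/a. Herbicidal effect was scored on a rating scale three weeks later.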

common lambsquater [2] = assay: as above; conditions: dose 3.2 g/a
In short: as §1

giant foxtail [3] = assay: as above; conditions: dose 3.2 g/a
In short: as §1

large crabgrass [4] = assay: as above; conditions: dose 3.2 g/a
In short: as §1

water foxtail [5] = assay: as above; conditions: dose 3.2 g/a
In short: as §1

wild oat [6] = assay: as above; conditions: dose 3.2 g/a
In short: as §1

redroot pigweed [7] = assay: as above; conditions: dose 3.2 g/a
In short: as §1

common chickweed [8] = assay: as above; conditions: dose 3.2 g/a
In short: as §1

barnyardgrass [9] = assay: as above; conditions: dose 3.2 g/a
In short: as §1

Italian ryegrass [10] = assay: as above; conditions: dose 3.2 g/a
In short: as §1

velvetleaf [11] = assay: as above; conditions: dose 3.2 g/a
In short: as §1

posumbu knotweed [12] = assay: as above; conditions: dose 3.2 g/a
In short: as §1

beadstraw [13] = assay: as above; conditions: dose 3.2 g/a
In short: as §1

transplanted rice = assay: Test Example 1: preemergence treatment under submerged conditions, effect on crop; conditions: dose 2.52 g/a
In short: (§2)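 Alluvial soil was flooded to 4 cm, sown with barnyardgrass, bulrush and ducksalad, and planted with 2.5-leaf rice seedlings. On the seeding day, water-diluted emulsifiable concentrates were applied to the water surface at set doses (g/a). After three weeks in a 25 to 30° C. greenhouse, mortality was scored 0–5.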

common ragweed [14] = assay: Test Example 4: herbicidal effect in foliage treatment; conditions: dose 3.2 g/a
In short: (§3)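 Seeds sown in sterilized diluvial soil under ~1.5 cm soil cover and grown 14 days in a greenhouse at 25 to 30° C. Emulsifiable concentrates diluted with water were then sprayed uniformly on foliage at predetermined doses (g/a). Herbicidal effect was scored three weeks after application on a graded evaluation scale.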

common lambsquater [15] = assay: as above; conditions: dose 3.2 g/a
In short: as §3

giant foxtail [16] = assay: as above; conditions: dose 3.2 g/a
In short: as §3

large crabgrass [17] = assay: as above; conditions: dose 3.2 g/a
In short: as §3

water foxtail [18] = assay: as above; conditions: dose 3.2 g/a
In short: as §3

redroot pigweed [19] = assay: as above; conditions: dose 3.2 g/a
In short: as §3

common chickweed [20] = assay: as above; conditions: dose 3.2 g/a
In short: as §3

barnyardgrass [21] = assay: as above; conditions: dose 3.2 g/a
In short: as §3

Italian ryegrass [22] = assay: as above; conditions: dose 3.2 g/a
In short: as §3

velvetleaf [23] = assay: as above; conditions: dose 3.2 g/a
In short: as §3

posumbu knotweed [24] = assay: as above; conditions: dose 3.2 g/a
In short: as §3

beadstraw [25] = assay: as above; conditions: dose 3.2 g/a, three weeks after application
In short: as §3

ducksalad [26] = assay: Test Example 2: herbicidal effects during the vegetation period under submerged conditions; conditions: treatment during the vegetation period under submerged conditions; dose 2.52 g/a
In short: (§4)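 Barnyardgrass, bulrush and ducksalad were co-sown in alluvial soil flooded to 4 cm and grown in a greenhouse at 25 to 30° C. At the 1- or 2-leaf stage, water-diluted emulsifiable concentrates went onto the water surface at set doses (g/a). Herbicidal effect was scored three weeks later on a graded scale.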

barnyardgrass [27] = assay: as above; conditions: treatment during the vegetation period under submerged conditions; dose 2.52 g/a
In short: as §4

bulrush [28] = assay: as above; conditions: treatment during the vegetation period under submerged conditions; dose 2.52 g/a
In short: as §4

ducksalad [29] = assay: Test Example 1: herbicidal effects in preemergence treatment under submerged conditions; conditions: dose 2.52 g/a
In short: as §2

barnyardgrass [30] = assay: as above; conditions: dose 2.52 g/a
In short: as §2

bulrush [31] = assay: as above; conditions: dose 2.52 g/a
In short: as §2

wild oat [32] = assay: Test Example 4: herbicidal effect in foliage treatment; conditions: dose 3.2 g/a, three weeks after the application
In short: as §3

[33] = three weeks after the application

CCC(=O)N(c1ccccc1CN1COC2(CCCC2)CC1=O)S(=O)(=O)C(F)(F)F [II-65] was tested, and the “J: common ragweed, herbicidal effect (evaluation scale 0-5)” value (common ragweed [1]) was 4 (mortality of at least 70% and less than 90%), the “L: common lambsquater, herbicidal effect (evaluation scale 0-5)” value (common lambsquater [2]) was 0 (mortality of less than 5% (almost ineffective)) and the “E: giant foxtail, herbicidal effect (evaluation scale 0-5)” value (giant foxtail [3]) was 5 (mortality of 90% or above (nearly complete death)). For the same molecule, the “D: large crabgrass, herbicidal effect (evaluation scale 0-5)” value (large crabgrass [4]) was 5 (mortality of 90% or above (nearly complete death)), the “G: water foxtail, herbicidal effect (evaluation scale 0-5)” value (water foxtail [5]) was 5 (mortality of 90% or above (nearly complete death)) and the “F: wild oat, herbicidal effect (evaluation scale 0-5)” value (wild oat [6]) was 0 (mortality of less than 5% (almost ineffective)). For the same molecule, the “K: redroot pigweed, herbicidal effect (evaluation scale 0-5)” value (redroot pigweed [7]) was 2 (mortality of at least 20% and less than 40%), the “N: common chickweed, herbicidal effect (evaluation scale 0-5)” value (common chickweed [8]) was 5 (mortality of 90% or above (nearly complete death)) and the “A: barnyardgrass, herbicidal effect (evaluation scale 0-5)” value (barnyardgrass [9]) was 5 (mortality of 90% or above (nearly complete death)). For the same molecule, the “H: Italian ryegrass, herbicidal effect (evaluation scale 0-5)” value (Italian ryegrass [10]) was 5 (mortality of 90% or above (nearly complete death)), the “I: velvetleaf, herbicidal effect (evaluation scale 0-5)” value (velvetleaf [11]) was 3 (mortality of at least 40% and less than 70%) and the “M: posumbu knotweed, herbicidal effect (evaluation scale 0-5)” value (posumbu knotweed [12]) was 4 (mortality of at least 70% and less than 90%). The “O: beadstraw, herbicidal effect (evaluation scale 0-5)” value (beadstraw [13]) was 0 (mortality of less than 5% (almost ineffective)), the “a: transplanted rice, effect on crop (evaluation scale 0-5)” value (transplanted rice) was 0 (mortality of less than 5% (almost ineffective)) and the “J: common ragweed, herbicidal effect” value (common ragweed [14]; three weeks after application) was 3 (mortality of at least 40% and less than 70%). For the same molecule, the “L: common lambsquater, herbicidal effect” value (common lambsquater [15]; three weeks after application) was 2 (mortality of at least 20% and less than 40%), the “E: giant foxtail, herbicidal effect” value (giant foxtail [16]; three weeks after application) was 4 (mortality of at least 70% and less than 90%) and the “D: large crabgrass, herbicidal effect” value (large crabgrass [17]; three weeks after application) was 3 (mortality of at least 40% and less than 70%). The “G: water foxtail, herbicidal effect” value (water foxtail [18]; three weeks after application) was 5 (mortality of 90% or above (nearly complete death)), the “K: redroot pigweed, herbicidal effect” value (redroot pigweed [19]; three weeks after application) was 0 (mortality of less than 5% (almost ineffective)) and the “N: common chickweed, herbicidal effect” value (common chickweed [20]; three weeks after application) was 5 (mortality of 90% or above (nearly complete death)). For the same molecule, the “A: barnyardgrass, herbicidal effect” value (barnyardgrass [21]; three weeks after application) was 3 (mortality of at least 40% and less than 70%), the “H: Italian ryegrass, herbicidal effect” value (Italian ryegrass [22]; three weeks after application) was 3 (mortality of at least 40% and less than 70%) and the “I: velvetleaf, herbicidal effect” value (velvetleaf [23]; three weeks after application) was 3 (mortality of at least 40% and less than 70%). The “M: posumbu knotweed, herbicidal effect” value (posumbu knotweed [24]; three weeks after application) was 3 (mortality of at least 40% and less than 70%), the “O: beadstraw, herbicidal effect” value (beadstraw [25]) was 0 (mortality of less than 5% (almost ineffective)) and the “C: ducksalad, herbicidal effect (evaluation scale 0-5)” value (from here on “C: ducksalad, herbicidal effect”) (ducksalad [26]) was 5 (mortality of 90% or above (nearly complete death)). The “A: barnyardgrass, herbicidal effect (evaluation scale 0-5)” value (barnyardgrass [27]) was 5 (mortality of 90% or above (nearly complete death)), the “B: bulrush, herbicidal effect (evaluation scale 0-5)” value (from here on “B: bulrush, herbicidal effect”) (bulrush [28]) was 5 (mortality of 90% or above (nearly complete death)) and the “C: ducksalad, herbicidal effect” value (ducksalad [29]) was 5 (mortality of 90% or above (nearly complete death)). The “A: barnyardgrass, herbicidal effect (evaluation scale 0-5)” value (barnyardgrass [30]) was 5 (mortality of 90% or above (nearly complete death)) and the “B: bulrush, herbicidal effect” value (bulrush [31]) was 5 (mortality of 90% or above (nearly complete death)).

With CC1OC(C)(C)CC(=O)N1Cc1ccccc1NS(=O)(=O)C(F)(F)F (stereo not shown) [II-72] the “J: common ragweed, herbicidal effect (evaluation scale 0-5)” value (common ragweed [1]) was 4 (mortality of at least 70% and less than 90%), the “L: common lambsquater, herbicidal effect (evaluation scale 0-5)” value (common lambsquater [2]) was 0 (mortality of less than 5% (almost ineffective)) and the “E: giant foxtail, herbicidal effect (evaluation scale 0-5)” value (giant foxtail [3]) was 5 (mortality of 90% or above (nearly complete death)). The “D: large crabgrass, herbicidal effect (evaluation scale 0-5)” value (large crabgrass [4]) was 5 (mortality of 90% or above (nearly complete death)), the “G: water foxtail, herbicidal effect (evaluation scale 0-5)” value (water foxtail [5]) was 5 (mortality of 90% or above (nearly complete death)) and the “K: redroot pigweed, herbicidal effect (evaluation scale 0-5)” value (redroot pigweed [7]) was 3 (mortality of at least 40% and less than 70%). The “N: common chickweed, herbicidal effect (evaluation scale 0-5)” value (common chickweed [8]) was 4 (mortality of at least 70% and less than 90%), the “A: barnyardgrass, herbicidal effect (evaluation scale 0-5)” value (barnyardgrass [9]) was 5 (mortality of 90% or above (nearly complete death)) and the “H: Italian ryegrass, herbicidal effect (evaluation scale 0-5)” value (Italian ryegrass [10]) was 5 (mortality of 90% or above (nearly complete death)). For the same molecule, the “O: beadstraw, herbicidal effect (evaluation scale 0-5)” value (beadstraw [13]) was 4 (mortality of at least 70% and less than 90%), the “a: transplanted rice, effect on crop (evaluation scale 0-5)” value (transplanted rice) was 3 (mortality of at least 40% and less than 70%) and the “J: common ragweed, herbicidal effect” value (common ragweed [14]; [33]) was 3 (mortality of at least 40% and less than 70%). The “L: common lambsquater, herbicidal effect” value (common lambsquater [15]; [33]) was 1 (mortality of at least 5% and less than 20%), the “E: giant foxtail, herbicidal effect” value (giant foxtail [16]; [33]) was 4 (mortality of at least 70% and less than 90%) and the “D: large crabgrass, herbicidal effect” value (large crabgrass [17]; [33]) was 4 (mortality of at least 70% and less than 90%). For the same molecule, the “G: water foxtail, herbicidal effect” value (water foxtail [18]; [33]) was 5 (mortality of 90% or above (nearly complete death)), the “F: wild oat, herbicidal effect” value (wild oat [32]) was 1 (mortality of at least 5% and less than 20%) and the “K: redroot pigweed, herbicidal effect” value (redroot pigweed [19]; [33]) was 2 (mortality of at least 20% and less than 40%). For the same molecule, the “N: common chickweed, herbicidal effect” value (common chickweed [20]; [33]) was 3 (mortality of at least 40% and less than 70%), the “A: barnyardgrass, herbicidal effect” value (barnyardgrass [21]; [33]) was 4 (mortality of at least 70% and less than 90%) and the “H: Italian ryegrass, herbicidal effect” value (Italian ryegrass [22]; [33]) was 5 (mortality of 90% or above (nearly complete death)). The “I: velvetleaf, herbicidal effect” value (velvetleaf [23]; [33]) was 5 (mortality of 90% or above (nearly complete death)), the “M: posumbu knotweed, herbicidal effect” value (posumbu knotweed [24]; [33]) was 3 (mortality of at least 40% and less than 70%) and the “C: ducksalad, herbicidal effect” value (ducksalad [26]) was 5 (mortality of 90% or above (nearly complete death)). The “A: barnyardgrass, herbicidal effect (evaluation scale 0-5)” value (barnyardgrass [27]) was 5 (mortality of 90% or above (nearly complete death)), the “B: bulrush, herbicidal effect” value (bulrush [28]) was 5 (mortality of 90% or above (nearly complete death)) and the “C: ducksalad, herbicidal effect” value (ducksalad [29]) was 5 (mortality of 90% or above (nearly complete death)). The “A: barnyardgrass, herbicidal effect (evaluation scale 0-5)” value (barnyardgrass [30]) was 5 (mortality of 90% or above (nearly complete death)) and the “B: bulrush, herbicidal effect” value (bulrush [31]) was 5 (mortality of 90% or above (nearly complete death)).

CCOC(=O)N(c1ccccc1CN1C(=O)C(Br)C(C)(C)OC1C)S(=O)(=O)C(F)(F)F (stereo not shown) [II-76] was tested, and the “herbicidal effect, J: common ragweed” value (common ragweed [1]) was 0 (mortality of less than 5% (almost ineffective)), the “herbicidal effect, L: common lambsquater” value (common lambsquater [2]) was 3 (mortality of at least 40% and less than 70%) and the “herbicidal effect, E: giant foxtail” value (giant foxtail [3]) was 0 (mortality of less than 5% (almost ineffective)). The “herbicidal effect, D: large crabgrass” value (large crabgrass [4]) was 3 (mortality of at least 40% and less than 70%), the “herbicidal effect, G: water foxtail” value (water foxtail [5]) was 5 (mortality of 90% or above (nearly complete death)) and the “herbicidal effect, F: wild oat” value (wild oat [6]) was 0 (mortality of less than 5% (almost ineffective)). The “herbicidal effect, K: redroot pigweed” value (redroot pigweed [7]) was 3 (mortality of at least 40% and less than 70%), the “herbicidal effect, N: common chickweed” value (common chickweed [8]) was 3 (mortality of at least 40% and less than 70%) and the “herbicidal effect, A: barnyardgrass” value (barnyardgrass [9]) was 3 (mortality of at least 40% and less than 70%). The “herbicidal effect, H: Italian ryegrass” value (Italian ryegrass [10]) was 0 (mortality of less than 5% (almost ineffective)), the “herbicidal effect, I: velvetleaf” value (velvetleaf [11]) was 3 (mortality of at least 40% and less than 70%) and the “herbicidal effect, O: beadstraw” value (beadstraw [13]) was 5 (mortality of 90% or above (nearly complete death)).

Reference: patent US20120029187A1, “HALOALKYLSULFONANILIDE DERIVATIVE” (Nissan Chemical Industries, Ltd., priority 2009, published 2012)
